Measurements as given in patent publication US8541235B2, “Modified reconstituted basement membrane composition for assay system” (Corning Incorporated, priority 2003, dated 2013).
Where two headings read alike, the source gives them in different places.

Assays:
HUVEC tube formation [1] = assay: Endothelial cell tube formation assay, stimulator studies on modified matrix; format: cell-based, human; conditions: modified matrix (inventive), total tube length, n=4
Procedure: (§1) With reference to FIG. 1, angiogenesis stimulators can be evaluated for their ability to enhance HUVEC tube formation using the compositions and cell culturing systems of the present invention. […] The bottom surface of the wells are shown as coated with the modified matrix composition of the present invention. On day 1, a potential angiogenesis stimulator is added to the coated surface, along with endothelial cells in cell medium. […] In inhibitor studies, the potential inhibitor is included in a well, in addition to at least one known stimulator and the endothelial cells in cell medium. After an appropriate incubation period, typically 24 hours at 37° C./5% CO2 (day 2), images of the wells are acquired, and tube length is quantified as a measure of cell tube formation.
Known stimulators were chosen to evaluate the performance of an inventive basement membrane composition vs. a prior basement membrane composition. The chosen stimulators were bFGF and spinosine-1-phosphate (S1P). […]
At the end of each assay, assay medium was removed and plates were washed once with HBSS. […] Total tube length of each well was measured using a revised (from previous) MetaMorph® Journal. Excel data was imported and analyzed using BD Gentest MPM/ADMET Software Program from BD Biosciences Discovery Labware. […]

HUVEC tube formation [2] = assay: Endothelial cell tube formation assay, inhibitor studies on modified matrix (tube formation induced by bFGF or S1P); format: cell-based, human; conditions: for Effect on S1P induced HUVEC tube formation: S1P 1 μM; for IC50: Homo sapiens, HUVEC
Procedure: as §1
Known stimulators were chosen to evaluate the performance of an inventive basement membrane composition vs. a prior basement membrane composition. The chosen stimulators were bFGF and spinosine-1-phosphate (S1P). Coated plates prepared as described above in Example 2 were thawed at about 4° C. for a period of about 4 to 5 hours. The components of the composition were then allowed to polymerize at 37° C., 5% CO2 for approximately 30 minutes immediately before assay setup. For stimulator studies, HUVEC (P3-P5) were harvested at about 70% cell confluence. About 50 μl of cells at 4×10^5/ml in 0.1% FBS/EBM-2 medium supplemented with or without the angiogenesis stimulators were seeded onto 96-well plates containing the pre-solidified (i.e., polymerized) modified reconstituted basement membrane composition (inventive) or a standard Matrigel® matrix (BD Growth Factor Reduced Matrigel® Matrix). The assembled assays were allowed to incubate in a 37° C. incubator with 5% CO2 for approximately 16 to 18 hours. Compounds were dissolved in DMF or water according to manufacturer's instructions.
At the end of each assay, assay medium was removed and plates were washed once with HBSS. 50 μl Calcein AM at 8 μg/ml in HBSS was added to each well and plates were incubated in a 37° C./5% CO2 incubator for 35 minutes followed by washing once in HBSS. Images were acquired with a 2× objective lens on an automated Gen-1 Cell-based Screening System (Universal Imaging Corporation™). Total tube length of each well was measured using a revised (from previous) MetaMorph® Journal. Excel data was imported and analyzed using BD Gentest MPM/ADMET Software Program from BD Biosciences Discovery Labware.
Inhibitor studies were performed as generally described in Example 4, except that for these studies, an inhibitor was included in the assay, in addition to a known stimulator. Data was obtained on the modified matrix (inventive). […] Stimulators, bFGF or S1P, were added to HUVECs at 20 ng/ml and 1 μM, respectively. Suramin of indicated concentrations was added to HUVEC in bFGF or S1P prior to adding the mixtures to each well. Each data point represents the mean+/−standard deviation (n=4).
With reference now to FIG. 5, the effects of inhibitors (SU5402 and Suramin) on HUVEC tube formation induced by stimulators (bFGF and S1P) is shown. Data was obtained on the modified matrix (inventive). Stimulators, bFGF or S1P, were added to HUVECs in EBM-2 containing 0.1% FBS at a final concentration of 20 ng/ml and 1 μM, respectively. Suramin at 15 μM (in medium) or SU5402 at 25 μM (in 0.1% DMF) were added to HUVECs in 0.1% FBS, or bFGF, or S1P, prior to adding the mixtures to the wells. […] Each bar represents the mean+/−standard deviation (n=4).

Molecule: CCCCCCCCCCCCC/C=C/[C@@H](O)[C@@H](N)COP(=O)(O)O [S1P, sphinosine-1-phosphate]
- EC50 (HUVEC tube formation [1]; read-out: EC50 in inducing HUVEC tube formation): 0.319 µM

Molecule: Cc1c[nH]c(/C=C2\C(=O)Nc3ccccc32)c1CCC(=O)O [SU5402]
- Effect on S1P induced HUVEC tube formation (HUVEC tube formation [2]; SU5402 at 25 μM (in 0.1% DMF), modified matrix, FIG. 5): partially inhibited
- Effect on HUVEC tube formation stimulated by bFGF (HUVEC tube formation [2]; SU5402 at 25 μM (in 0.1% DMF), bFGF 20 ng/ml, modified matrix, FIG. 5): completely inhibited

Molecule: Cc1ccc(C(=O)Nc2ccc(S(=O)(=O)O)c3cc(S(=O)(=O)O)cc(S(=O)(=O)O)c23)cc1NC(=O)c1cccc(NC(=O)Nc2cccc(C(=O)Nc3cc(C(=O)Nc4ccc(S(=O)(=O)O)c5cc(S(=O)(=O)O)cc(S(=O)(=O)O)c45)ccc3C)c2)c1 [Suramin]
- IC50 (HUVEC tube formation [2]; read-out: IC50 of inhibition of tube formation stimulated by S1P): 10.6 µM
- IC50 (HUVEC tube formation [2]; read-out: IC50 of inhibition of tube formation stimulated by bFGF): 7.3 µM
- Effect on S1P induced HUVEC tube formation (HUVEC tube formation [2]; Suramin at 15 μM (in medium), modified matrix, FIG. 5): inhibited
- Effect on bFGF induced HUVEC tube formation (HUVEC tube formation [2]; Suramin at 15 μM (in medium), bFGF 20 ng/ml, modified matrix, FIG. 5): inhibited

Molecule: bFGF: known angiogenesis stimulator; fibroblast growth factor (basic FGF)
- EC50 in inducing HUVEC tube formation (HUVEC tube formation [1]): 1.5 ng/mL
